Publication PMC10182601, “Biological evaluation of novel gemcitabine analog in patient-derived xenograft models of pancreatic cancer” (BMC Cancer, 2023)
Where a name gives a salt, the structure may show the parent alone.

Key:
[1] = Pharmacokinetic study in mice (i.v. bolus); assay type: in vivo; conditions: single i.v. bolus, Gem equivalent (b110 prints 20 mg/kg)
Method: For pharmacokinetic (PK) studies, normal healthy mice were grouped into control, GemHCl, and 4NSG-SLN. […] After the injection, aliquots of blood samples were collected at predetermined time points (5, 10, 15, 30, 60, 120, 240, 360, 720, and 1440 min). Blood samples collected were treated with 2 mL of an extraction solvent (15% of isopropyl alcohol in ethyl acetate). The mixture was vortexed for 30 s and centrifuged at 3,000 rpm for 15 min, and the supernatant was collected and vaporized to dry overnight in a water bath. Residual solvent was removed by placing the dried samples in vacuum chamber.
Five hundred microliters (500 uL) of mobile phase solution was used to reconstitute the dried sample (mobile phase solution was made up of 5% acetonitrile in 10 mM dihydrogen phosphate buffer, pH adjusted to 3). The sample solution was centrifuged at 3,000 rpm for 15 min, supernatant collected and filtered, and samples analyzed for Gem using HPLC. The PK parameters were determined using PKSolver software.
To determine the concentration of Gem, supernatant from mouse plasma was spiked with aliquots of 0.5 μg/ml of Gem. The chromatographic analysis was performed according to the method described with minor modifications. The samples were collected using supernatants (10µL), aliquots of control (spiked), and mouse plasma. The chromatographic system consisted of an HPLC (Agilent Technologies, 1290 infinity) equipped with an auto-sampler, diode array detector (DAD), and pumps. Separation was performed using a reverse phase column (Zobrax Rapid Resolution High Definition (RRHD) Eclipse plus C18, 2.1 × 50 mm, 1.8 µm). A flow rate of 250 µL/min and injection volume of 10 μL at ambient temperature was maintained at 25 ± 1 °C while detection was performed at 268 nm. Before analysis, the reverse phase column was equilibrated with a mobile phase of 5% acetonitrile in 10 mM dihydrogen phosphate buffer, pH adjusted to 2.5 with trifluoroacetic acid (TFA). Isocratic elution was performed throughout the entire analysis, including internal standards. A calibration curve was prepared using Gem standard solutions with a concentration range of 0.063–2.0 μg/mL. A plot of the peak areas as a function of Gem concentration was plotted, and the linear equation of the calibration curve given as y = mx + c was determined, where y is the peak area, m is the slope, x is the concentration of Gem, and c is the y—intercept.

[2] = test system: PCa PDX tumor from Black patients; test: Tumor efficacy in PDX mice bearing tumors from Black PCa patients; assay type: in vivo; conditions: 30 mg/kg Gem equivalent i.v. twice weekly for 3 weeks
Excerpt: The implantation of surgical tumor tissue into immuno-compromised mice was described previously. A viable portion of resected tissue 2 × 2 mm in size was briefly isolated immediately from surgically resected primary PCa specimens (from Blacks and White patients) with care to minimize critical ischemia time. The PCa tissues were then implanted subcutaneously into an 8-week-old mouse (The Jackson Laboratory, Bar Harbor, ME). The xenografts were allowed to grow to a maximum diameter of 1.5 cm before passage and in vitro culture.
Mice-bearing surgically implanted tumors obtained from Black and White patients with sizes of 70–100 mm^3 were randomized into groups as control, GemHCl, and 4NSG-SLN (n = 5/group). Baseline tumor volume was established, and dosing initiation began on day 1 with intravenous administration of 30 mg/kg Gem (twice weekly for 3 weeks) with an equivalent dose of GemHCl and 4NSG-SLN [42]. Once tumors became palpable, their volume was measured thrice per week, and the mice's weight was recorded twice weekly. Tumor volumes were measured using digital calipers and calculated using the following equation: V = (L*(W)^2)/2, where V is the volume (mm^3), W(width) is the smaller of two perpendicular tumor axes, and the L (length) is the larger of two vertical axes. Mean tumor volume growth curves were calculated for each treatment group.

PPCL-46 cells = test: Cell cycle distribution (PI, flow cytometry), PPCL-46; assay type: cell-based, human; conditions: 24 h
Method: Cell cycle study was performed to determine the effect of 4NSG-SLN on the cell cycle; PPCL-192 and PPCL-46 cells (2 × 10^5 cells per well) were seeded in 6-well plates and cultured using DMEM medium supplemented with 10% FBS10 mM HEPES, 10% FBS, and 1% penicillin/streptomycin were seeded in 6-well plates and incubated at 37 °C. After the cells reached 75% confluence, they were exposed to different concentrations (5 μM,10 μM, and 20 µM) of GemHCl and 4NSG-SLN. After 24 h exposure, cells were harvested, washed with PBS, centrifuged at 300 × g for 5 min, resuspended the pellets in 100 μL of PBS, and passed through a 28 5/8 needle to disperse them into single cells. Fixation and permeation of cells were performed using cold 70% ethanol while vortexing. Cells were then stored at − 20 °C overnight. The cells were resuspended in 0.1 mg/mL RNase, stained with […] PI, and the phase distribution was examined using flow cytometry (FACScalibur-Becton Dickinson).

clearance ([1]; mouse, plasma, iv, read-out: Cl (clearance) (converted)): 0.355 mL/min | Vd ([1]; mouse, plasma, iv, read-out: Vd (volume of distribution)): 0.0217 ± 0.0019 L | k el ([1]; mouse, plasma, iv, read-out: k10 (elimination rate constant) (converted)): 0.000281 s⁻¹ | half-life ([1]; mouse, plasma, iv, read-out: t1/2 (half-life) (converted)): 42 ± 0.6 min | AUC(0-t) [1]: 28200 ± 4300 ng·h/mL
Structure (SMILES): Nc1ccn([C@@H]2O[C@H](CO)[C@@H](O)C2(F)F)c(=O)n1 [GemHCl, Gemcitabine hydrochloride]
Mean terminal tumor volume ([2]; day 1, BT PDX mice): 12.5 ± 6 mm^3 | Mean terminal tumor volume ([2]; day 3, BT PDX mice): 25.0 ± 12 mm^3 | Mean terminal tumor volume ([2]; day 5, BT PDX mice): 35.7 ± 18 mm^3 | Mean terminal tumor volume ([2]; day 7, BT PDX mice): 73.0 ± 21 mm^3 | Mean terminal tumor volume ([2]; day 11, BT PDX mice): 662. ± 198 mm^3 | Mean terminal tumor volume ([2]; day 13, BT PDX mice): 767. ± 194 mm^3 | Mean terminal tumor volume ([2]; day 15, BT PDX mice): 911. ± 152 mm^3 | Mean terminal tumor volume ([2]; day 17, BT PDX mice): 990. ± 151 mm^3 | Mean terminal tumor volume ([2]; day 19, BT PDX mice): 1129 ± 172 mm^3 | Mean terminal tumor volume ([2]; day 21, BT PDX mice): 1204 ± 184 mm^3 | Mean terminal tumor volume ([2]; day 23, BT PDX mice): 1456 ± 154 mm^3 | Mean terminal tumor volume ([2]; day 25, BT PDX mice): 1681 ± 172 mm^3 | %G1 (PPCL-46 cells; PPCL-46, 5 μM): 72.75% | %G2 (PPCL-46 cells; PPCL-46, 5 μM): 12.56% | %S (PPCL-46 cells; PPCL-46, 5 μM): 14.69% | %G1 (PPCL-46 cells; PPCL-46, 10 μM): 74.08% | %G2 (PPCL-46 cells; PPCL-46, 10 μM): 10.39% | %S (PPCL-46 cells; PPCL-46, 10 μM): 15.53% | %G1 (PPCL-46 cells; PPCL-46, 20 μM): 76.35% | %G2 (PPCL-46 cells; PPCL-46, 20 μM): 9.54% | %S (PPCL-46 cells; PPCL-46, 20 μM): 14.11%
